We go through five compounds from patent US20220142948A1, “COMPOSITIONS AND METHODS FOR MODULATING METABOLIC REGULATORS OF T CELL PATHOGENICITY” (The Broad Institute, Inc., priority 2019, published 2022).

The test system of assay [1] is Th17 cells (Th17n, Th17p). Description: T cell differentiation culture and flow cytometry (intracellular cytokine and transcription factor staining, CellTrace proliferation). Particulars: for IL-17 positive CD4 T cells / IL-17 expression: glycolysis enzyme inhibitors, non-pathogenic or pathogenic Th17 conditions, cells after one division. (In general: In flow cytometry, cells or beads pass a laser one at a time.)
Protocol: Naïve CD4+CD44-CD62L+CD25-T cells were sorted using BD FACSAria sorter and activated with plate-bound anti-CD3 (1 μg/ml) and antiCD28 antibodies (2 μg/ml) in the presence of cytokines at a concentration of 5×10^5 cells/ml.
Naïve CD4+CD44-CD62L+CD25− T cells with or without including IL-17A.GFP+ were sorted using BD FACSAria sorter and activated with plate-bound anti-CD3 and antiCD28 antibodies (each 1 μg/ml) in the presence of cytokines at a concentration of 5×10^5 cells/ml. For T cell differentiations the following combinations of cytokines were used: pathogenic Th17 (Th17p): 25 ng/ml rmIL-6, 20 ng/ml rmIL-1b (both Miltenyi Biotec) and 20 ng/ml rmIL-23 (R&D systems); non-pathogenic Th17 (Th17n): 25 ng/ml rmIL-6 and 2 ng/ml of rhTGFb1 (Miltenyi Biotec). For differentiation experiments, cells were harvested at 72 hours and were performed in the presence or absence of 50 μM EGCG (Selleck Chemicals), 50 μM DHEA, 40 μM DCA, 10 μM Shikonin (all Sigma) as indicated.
Proliferation was assessed by staining with CellTrace Violet (Thermo Fisher Scientific) per manufacturer's instructions. All stainings were analyzed on a FACS LSR II (BD Bioscience) and using FlowJo software.

Assay [2] relates to Th17 cells (Th17n, Th17p). Description: Legendplex analysis of cytokines in culture supernatant. In kind it is cell-based, mouse. As to conditions: glycolysis enzyme inhibitors; Th17 cell cultures. Here is the method: Legendplex. Cytokine concentrations in supernatants of in vitro cultures were analyzed by the LegendPlex Mouse Th Cytokine Panel (13-plex) (BioLegend) according to the manufacturer's instructions and analyzed on a FACS LSR II (BD Biosciences).
Seahorse assay was performed and seahorse media was prepared following manufacturer instructions (Agilent). Cells were re-stimulated with PMA/ionomycin for four hours in the presence of brefaldin and monensin before analysis for cytokines by intracellular cytokine staining. Cytokine concentrations in supernatants of in vitro cultures were analyzed by the LegendPlex Mouse Th Cytokine Panel (13-plex) (BioLegend) according to the manufacturer's instructions and analyzed on a FACS LSR II (BD Biosciences).

The test system of assay [3] is MOG35-55 specific T cells. Kind of assay: Antigen-specific recall response of draining lymph node cells to MOG35-55 (thymidine incorporation, Legendplex). In kind it is in vivo, mouse. Particulars: mice transferred with DHEA-treated Th17p cells. The procedure:
FIG. 37A-37I—Targeting ODC1 and SAT1 alleviate EAE. (A) Schematics of the polyamine pathway; (B-D) The effects of chemical inhibition of ODC1 by DFMO on EAE. Wildtype mice were immunized with MOG35-55/CFA to induce experimental autoimmune encephalomyelitis and followed for clinical scoring. DFMO were provided in drinking water from day 0 for 10 days in experimental group. B, Clinical score over time. […] C, Antigen-specific cell proliferation is measured by thymidine incorporation after culturing cells isolated from draining lymph node of mice (d15 post immunization) with increasing dose of MOG35-55 peptide for 3 days. D, Flow cytometric analysis of intracellular Foxp3 expression in T cells isolated from CNS at day 15 post immunization. (E-I) The effects of genetic perturbation of SAT1. E, The effects of SAT1 deficiency on metabolome. Abundance of metabolites in the polyamine pathway were determined by LC/MS based metabolomics. Th17n and Th17p cells were differentiated in vitro from naïve cells isolated from WT or SAT1^−/− mice. (F-I) The effects of SAT1 deficiency on EAE. EAE were induced as in (B) in wildtype and SAT1^fl/flCD4^cre mice. F, Clinical score (left) and histological score (right) showing the number of CNS infiltrates show representative experiment with 5 WT and 8 CKO mice. G-H, Cells were isolated from draining lymph node of mice (d23 post immunization) and co-cultured with increasing dose of MOG35-55 peptide for 3 days. Antigen-specific cell proliferation is measured by thymidine incorporation (G) and antigen-specific cytokine secretion by legendplex (H). I, Flow cytometry analysis of intracellular transcription factor expression in CD4 T cells isolated from CNS day 15 post immunization. Linear regression analysis (b, c, f, g), two-way anova (e) and student t test (d, i) were used for statistical analysis.
FIG. 46A-46J—EGCG exacerbates and DHEA ameliorates Th17-induced EAE in vivo. 2D2 TCR-transgenic Th17 cells were adoptively transferred after differentiation in vitro in the presence of an inhibitor or vehicle as indicated. (A, C, G) Clinical outcome of EAE; (B, D) Histological score based on cell infiltrates in meninges and parenchyma of CNS; (E, F) Draining lymph node (cervical) from respective mice were isolated and pulsed with increasing dose of MOG35-55 peptide for 3 days and (E) subjected to thymidine incorporation assay; or (F) measurement of cytokine secretion by Legendplex and flow cytometry. Concentrations were normalized through division by the respective response to no antigen control (H-I) Independent pathological report of CNS isolated from mice with EAE at end point (d35 for EGCG experiments; d28 for DHEA experiment); Optic nerves were not found in the histologic section from one animal in the EGCG+IL-23 group. (J) Representative histology of spinal cord and spinal nerve roots. […] PC, posterior column; PH, posterior horn. Individual mouse numbers are indicated. […] All are H. & E., 40× objective. Three similar experiments were performed.
Background: Incorporation of labelled thymidine or its analogues reports DNA synthesis.

In assay [4] the test system is experimental autoimmune encephalomyelitis (EAE). Kind of assay: Adoptive transfer EAE with 2D2 TCR-transgenic Th17 cells differentiated in the presence of inhibitor. In kind it is in vivo, mouse. From the text: For adoptive transfer EAE, naïve 2D2 transgenic T cells were sorted and differentiated into Th17n cells+/−EGCG or Th17p+/−DHEA as described for three days followed by a resting phase in the presence of IL-23 alone for 2 days. Cells were then harvested and restimulated with plate-bound anti-CD3 and anti-CD28 for 2 days prior to transfer. 2-8 million cells were transferred per mouse intravenously.
For adoptive transfer EAE, naive T cells (CD4+CD44-CD62L+CD25-) were isolated from 2D2 TCR-transgenic mice and activated with anti-CD3 ([…]) and anti-CD28 ([…]) in the presence of differentiation cytokines for 68h. Cells were rested for 2 days and restimulated with plate-bound anti-CD3 (0.5 mg/ml for pathogenic condition; […] for non-pathogenic condition) and anti-CD28 ([…]) for 2 days prior to transfer. Equal number (2 to 8 million) cells were transferred per mouse intravenously.

In assay [5] the test system is Th17n, Th17p and iTreg cells. Kind of assay: Population (bulk) RNA-seq of in vitro differentiated T cells. In kind it is cell-based, mouse. The procedure:
(§1) RNA-seq. For population (bulk) RNA-seq, in vitro differentiated T-cells were sorted for live cells and lysed with RLT Plus buffer and RNA was extracted using the RNeasy Plus Mini Kit (Qiagen). Full-length RNA-seq libraries were prepared as previously described and paired-end sequenced (75 bp×2) with a 150 cycle Nextseq 500 high output V2 kit.
Bulk RNA-Seq and SMART-Seq2 analysis. Applicants aligned single-cell SMART-Seq2 libraries with Bowtie2, quantified TPM gene expression with RSEM, and performed QC as Applicants described in detail in a previous publication^51. This computational pipeline is a massively revised and updated version of the one originally used to analyze these libraries^19. Batch effects and other nuisance factors were normalized with a model chosen empirically with SCONE ^52. Bulk RNA-Seq were processed with a modified variant of the same pipeline. In the absence of UMIs, differentially expressed genes were called through a linear model fitted to TPM values with the limma R package and with a mean-variance trend added to the empirical bayes prior^53,54.
as §1
Bulk RNA libraries from DFMO- or vehicle-treated Th17p, Th17n, or Treg were studied with 3 replicates per condition for a total of 18 libraries as shown in FIG. 36A. Genes that are associated with a Th17 or Treg programs (orange and purple, respectively, in FIG. 36B-C) were determined by differential expression test between bulk RNA libraries of (vehicle-treated) Th17n and Th17p on one side and Treg on the other with BH-adjusted p<0.05 and absolute value of log 2 fold-change of at least 1.5. Genes associated with the Th17p or Th17n program (magenta and green, respectively, in FIG. 40A) were determined by differential expression test between bulk RNA libraries of (vehicle-treated) Th17p vs. Th17n with the same thresholds. The PCA shown in FIG. 36A was computed on the set of 3,414 that were differentially associated with Th17, Treg, Th17p, or Th17n programs by the aforementioned criteria to focus it on the subspace of the transcriptome relevant to Th17 pathogenicity phenotypes.
Applicants aligned single-cell SMART-Seq libraries with Bowtie2, quantified TPM gene expression with RSEM, and performed QC as Applicants described in detail in a previous publication (Fletcher et al., 2017). This computational pipeline is a massively revised and updated version of the one originally used to analyze these libraries (Gaublomme et al., 2015). Batch effects and other nuisance factors were normalized with a model chosen empirically with SCONE (Cole et al., 2019). Bulk RNA-Seq were processed with a modified variant of the same pipeline.
For the Smart-Seq libraries, due the absence of UMIs in the dataset, differentially expressed genes were called through a linear model _tted to TPM values with the limma R package and with a mean-variance trend added to the empirical Bayes prior (Ritchie et al., 2015). For the bulk RNA libraries, differentially expressed genes were called with limma-trend or limma-voom (Law et al., 2014) depending on the variance of library sizes, as recommended in the limma package manual (Smyth, 2019).

In assay [6] the target is KDMSA (Homo sapiens, UniProt P29375). Particulars: cited from earlier work.
KDMSA, sequence (P29375 whole entry): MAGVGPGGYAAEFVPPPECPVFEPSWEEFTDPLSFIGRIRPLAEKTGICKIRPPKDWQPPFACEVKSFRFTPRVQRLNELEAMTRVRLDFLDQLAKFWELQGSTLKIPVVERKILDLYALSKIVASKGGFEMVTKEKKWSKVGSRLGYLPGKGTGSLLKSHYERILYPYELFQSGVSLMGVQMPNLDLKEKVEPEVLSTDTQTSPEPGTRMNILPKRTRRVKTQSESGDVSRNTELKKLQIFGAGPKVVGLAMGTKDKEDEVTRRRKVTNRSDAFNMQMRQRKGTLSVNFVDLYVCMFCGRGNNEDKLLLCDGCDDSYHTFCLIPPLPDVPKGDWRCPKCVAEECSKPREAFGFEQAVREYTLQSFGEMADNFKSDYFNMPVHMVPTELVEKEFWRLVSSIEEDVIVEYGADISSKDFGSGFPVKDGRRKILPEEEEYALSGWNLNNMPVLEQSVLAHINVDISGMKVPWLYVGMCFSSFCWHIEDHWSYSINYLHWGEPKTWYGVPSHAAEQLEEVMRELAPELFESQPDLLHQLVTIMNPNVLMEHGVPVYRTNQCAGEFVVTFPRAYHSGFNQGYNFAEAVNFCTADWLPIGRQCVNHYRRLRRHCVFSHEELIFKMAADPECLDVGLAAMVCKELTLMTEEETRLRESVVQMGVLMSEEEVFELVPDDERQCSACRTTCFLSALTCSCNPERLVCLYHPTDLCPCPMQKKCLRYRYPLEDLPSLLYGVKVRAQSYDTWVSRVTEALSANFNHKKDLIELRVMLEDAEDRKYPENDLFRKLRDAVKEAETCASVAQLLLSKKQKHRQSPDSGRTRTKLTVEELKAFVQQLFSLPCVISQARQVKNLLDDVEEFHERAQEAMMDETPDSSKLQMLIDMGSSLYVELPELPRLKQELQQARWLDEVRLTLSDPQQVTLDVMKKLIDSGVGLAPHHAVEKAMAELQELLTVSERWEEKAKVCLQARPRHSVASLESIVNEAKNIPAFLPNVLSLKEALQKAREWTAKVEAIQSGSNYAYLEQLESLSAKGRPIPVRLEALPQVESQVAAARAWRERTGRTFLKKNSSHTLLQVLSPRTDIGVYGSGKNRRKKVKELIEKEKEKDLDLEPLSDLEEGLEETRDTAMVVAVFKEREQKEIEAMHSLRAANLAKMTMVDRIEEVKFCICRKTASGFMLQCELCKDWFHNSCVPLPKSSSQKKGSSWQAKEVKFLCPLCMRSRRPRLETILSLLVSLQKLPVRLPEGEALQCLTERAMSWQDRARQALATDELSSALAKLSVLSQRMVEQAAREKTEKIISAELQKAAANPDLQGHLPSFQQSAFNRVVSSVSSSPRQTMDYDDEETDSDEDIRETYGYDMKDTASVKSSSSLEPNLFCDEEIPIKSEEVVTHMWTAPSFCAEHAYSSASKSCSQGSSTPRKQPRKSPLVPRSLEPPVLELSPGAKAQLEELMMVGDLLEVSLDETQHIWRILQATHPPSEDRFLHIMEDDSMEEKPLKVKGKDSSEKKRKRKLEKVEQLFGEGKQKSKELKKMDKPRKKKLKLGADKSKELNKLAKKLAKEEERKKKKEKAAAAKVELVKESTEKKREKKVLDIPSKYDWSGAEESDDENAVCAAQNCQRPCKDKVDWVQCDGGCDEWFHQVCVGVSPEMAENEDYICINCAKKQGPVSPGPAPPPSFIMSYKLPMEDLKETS
The target of assay [7] is KDMSC (Homo sapiens, UniProt P41229). Particulars: cited from earlier work.
KDMSC, sequence (P41229 whole entry): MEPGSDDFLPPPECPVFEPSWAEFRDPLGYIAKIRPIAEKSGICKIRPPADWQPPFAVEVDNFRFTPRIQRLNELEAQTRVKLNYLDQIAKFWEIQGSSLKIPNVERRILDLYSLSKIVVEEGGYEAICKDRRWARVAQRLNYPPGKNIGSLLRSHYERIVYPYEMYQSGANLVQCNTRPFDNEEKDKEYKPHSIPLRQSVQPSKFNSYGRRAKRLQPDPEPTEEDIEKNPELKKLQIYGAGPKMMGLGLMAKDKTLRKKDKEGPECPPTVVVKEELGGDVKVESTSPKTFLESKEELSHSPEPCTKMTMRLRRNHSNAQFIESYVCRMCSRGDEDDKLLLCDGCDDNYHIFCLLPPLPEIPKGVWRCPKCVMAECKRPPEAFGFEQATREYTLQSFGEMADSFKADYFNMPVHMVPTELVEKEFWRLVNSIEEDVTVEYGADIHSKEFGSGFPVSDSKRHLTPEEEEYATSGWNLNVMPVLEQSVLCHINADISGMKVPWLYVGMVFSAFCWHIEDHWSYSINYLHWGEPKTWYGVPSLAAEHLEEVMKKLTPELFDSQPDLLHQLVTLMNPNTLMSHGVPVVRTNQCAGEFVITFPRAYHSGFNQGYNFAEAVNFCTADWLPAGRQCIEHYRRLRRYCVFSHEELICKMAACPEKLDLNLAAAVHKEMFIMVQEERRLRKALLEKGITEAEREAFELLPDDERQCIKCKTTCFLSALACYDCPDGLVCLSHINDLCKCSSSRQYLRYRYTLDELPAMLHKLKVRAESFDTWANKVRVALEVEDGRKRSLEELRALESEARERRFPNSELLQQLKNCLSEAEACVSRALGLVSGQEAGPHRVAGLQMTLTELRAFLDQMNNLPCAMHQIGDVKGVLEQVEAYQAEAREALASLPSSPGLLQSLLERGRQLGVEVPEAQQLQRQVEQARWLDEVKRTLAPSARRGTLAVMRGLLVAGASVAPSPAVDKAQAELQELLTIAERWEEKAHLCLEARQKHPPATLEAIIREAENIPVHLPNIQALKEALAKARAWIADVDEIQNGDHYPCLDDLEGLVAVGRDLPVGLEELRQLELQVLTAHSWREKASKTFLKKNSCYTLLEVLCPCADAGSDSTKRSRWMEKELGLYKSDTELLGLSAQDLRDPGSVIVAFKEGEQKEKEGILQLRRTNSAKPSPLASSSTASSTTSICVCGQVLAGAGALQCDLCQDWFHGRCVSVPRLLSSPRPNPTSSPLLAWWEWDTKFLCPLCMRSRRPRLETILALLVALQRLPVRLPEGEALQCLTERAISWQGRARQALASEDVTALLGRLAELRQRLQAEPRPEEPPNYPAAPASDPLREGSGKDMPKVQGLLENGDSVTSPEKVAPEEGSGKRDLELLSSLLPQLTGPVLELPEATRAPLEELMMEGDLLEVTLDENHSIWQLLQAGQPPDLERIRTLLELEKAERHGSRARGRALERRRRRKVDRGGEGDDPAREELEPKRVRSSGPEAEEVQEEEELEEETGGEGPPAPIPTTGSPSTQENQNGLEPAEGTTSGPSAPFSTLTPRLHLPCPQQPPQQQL
The target in assay [8] is UTX (KDM6A) (Homo sapiens, UniProt O15550). As to conditions: cited from earlier work.
UTX (KDM6A), sequence (O15550 whole entry, species assumed): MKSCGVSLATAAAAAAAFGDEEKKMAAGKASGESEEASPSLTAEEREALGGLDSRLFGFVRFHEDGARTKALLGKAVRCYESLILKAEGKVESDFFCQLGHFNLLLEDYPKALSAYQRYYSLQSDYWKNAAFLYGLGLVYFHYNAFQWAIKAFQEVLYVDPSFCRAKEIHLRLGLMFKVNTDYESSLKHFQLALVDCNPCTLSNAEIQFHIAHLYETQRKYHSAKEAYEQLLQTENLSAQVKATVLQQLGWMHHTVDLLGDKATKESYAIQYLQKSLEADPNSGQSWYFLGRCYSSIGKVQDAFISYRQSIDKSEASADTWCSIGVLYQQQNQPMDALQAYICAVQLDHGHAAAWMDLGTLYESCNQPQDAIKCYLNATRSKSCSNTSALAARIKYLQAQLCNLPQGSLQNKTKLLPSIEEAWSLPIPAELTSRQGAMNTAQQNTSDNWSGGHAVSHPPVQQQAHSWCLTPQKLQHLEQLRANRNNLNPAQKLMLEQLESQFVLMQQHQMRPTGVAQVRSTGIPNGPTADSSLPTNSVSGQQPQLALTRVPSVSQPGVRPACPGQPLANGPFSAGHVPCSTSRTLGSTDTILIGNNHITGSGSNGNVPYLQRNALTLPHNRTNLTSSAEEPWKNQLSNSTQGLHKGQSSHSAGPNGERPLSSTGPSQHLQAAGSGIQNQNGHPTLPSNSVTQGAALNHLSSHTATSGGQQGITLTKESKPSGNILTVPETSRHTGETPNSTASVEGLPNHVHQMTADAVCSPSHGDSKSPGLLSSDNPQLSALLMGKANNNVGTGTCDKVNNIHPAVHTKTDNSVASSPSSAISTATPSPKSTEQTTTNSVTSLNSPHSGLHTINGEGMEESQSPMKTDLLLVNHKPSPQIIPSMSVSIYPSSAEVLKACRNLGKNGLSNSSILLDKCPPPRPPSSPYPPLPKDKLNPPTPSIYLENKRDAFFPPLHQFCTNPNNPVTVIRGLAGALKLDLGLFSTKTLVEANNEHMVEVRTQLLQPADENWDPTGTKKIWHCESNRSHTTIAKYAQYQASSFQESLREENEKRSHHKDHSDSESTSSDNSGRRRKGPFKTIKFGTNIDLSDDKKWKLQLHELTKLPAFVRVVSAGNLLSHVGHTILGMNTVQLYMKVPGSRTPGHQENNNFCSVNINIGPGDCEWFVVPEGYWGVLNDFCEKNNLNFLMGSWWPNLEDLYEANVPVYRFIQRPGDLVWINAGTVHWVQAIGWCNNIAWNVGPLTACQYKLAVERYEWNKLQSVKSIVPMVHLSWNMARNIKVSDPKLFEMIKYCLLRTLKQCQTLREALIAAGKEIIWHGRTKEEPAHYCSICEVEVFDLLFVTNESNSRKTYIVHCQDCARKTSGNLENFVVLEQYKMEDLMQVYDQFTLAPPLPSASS
Assay [9] has as its target KDMSB (Homo sapiens, UniProt Q9UGL1). Particulars: cited from earlier work.
Assay [10] has as its system 100 protein kinases. As to conditions: at a concentration of 30 μM; cited from earlier work.
The test system of assay [11] is other histone demethylases. As to conditions: cited from earlier work.
Assay [12] deals with Th17n and Th17p cells. Kind of assay: Seahorse assay, oxygen consumption rate. Format: cell-based, mouse. As to conditions: 40 uM etomoxir. The procedure: FIG. 44A-44I—Differential usage of glycolysis and fatty acid oxidation by pathogenic and non-pathogenic Th17 cells. (A) A diagram of central carbon metabolism, overlaid with Compass prediction for differential potential activity between Th17p and Th17n. […] (B) Th17n, Th17p and Treg cells were differentiated as described (STAR Methods) and replated with Seahorse media at 68h for Seahorse assay. Extracellular acidification rate (ECAR) and oxygen consumption rate (OCR) are reported in response to mitostress test. (C) Th17p and Th17n cells were differentiated and harvested at 68h (left columns) or replated in fresh media with no TCR stimulation or cytokine for 15 minutes (right columns) and subject to LC/MS based metabolomics. (D) Cells were harvested as in C and pulsed with 13C-tagged glucose for 15 minutes. Shown is the ratio of 13C-tagged carbon out of the total carbon content associated with the metabolite (STAR Methods). (E) Th17n and Th17p cells were measured for their oxygen consumption rate in the presence of control or 40 uM etomoxir. […]
Seahorse assay was performed and seahorse media was prepared following manufacturer instructions (Agilent). […] Cytokine concentrations in supernatants of in vitro cultures were analyzed by the LegendPlex Mouse Th Cytokine Panel (13-plex) (BioLegend) according to the manufacturer's instructions and analyzed on a FACS LSR II (BD Biosciences).

The structures appear in SMILES notation. “Also recorded” adds a separate entry of the source.

Turning to `O=C(OCC(O)CO)C(Cl)Cl` (stereo not shown) [DCA, 2,3-dihydroxypropyl-dichloroacetate], in assay [1], the “IL-17 positive CD4 T cells / IL-17 expression” value is recorded as “increase”. In [2], the “cytokine profile / cytokine production” value was “retained their cytokine profile”.
`C[C@]12CC[C@H](O)CC1=CC[C@@H]1[C@@H]2CC[C@]2(C)C(=O)CC[C@@H]12` [DHEA, dehydroepiandrosterone]: in assay [3], the “IL-2 secretion in response to MOG” value was “increased” and the “antigen-specific cytokine secretion in response to MOG” value is “no significant alterations”. Besides, the “IL-17 positive CD4 T cells / IL-17 expression” value in assay [1] was “decrease”. In addition, in assay [2], the “cytokine profile / cytokine production” value is “curtailed cytokine production”. Besides, the “optic neuritis/perineuritis in host mice” value in assay [4] (EGCG on Th17n, DHEA on Th17p) is “restricted”. In addition, the “EAE induced by Th17p cells” value in [4] (Th17p cells differentiated with inhibitor vs vehicle) is on record as “induced a milder form of the disease; also recorded: alleviates EAE; also recorded: reduced the severity of disease at peak of EAE; also recorded: ameliorates”. Further, in assay [5], the IL1RN transcripts result was “significant decrease” and the IL9 transcripts result is listed as “significant decrease”. Also, the “pro-pathogenic transcriptional program / module” value in assay [5] (Th17n cells) was “does not induce an opposite effect”. In addition, the “decrease in TBX21 (Tbet) transcripts” value in [5] (Th17p) is 1 fold. Further, the pathogenic program entry in assay [5] (Th17p cells) is recorded as “suppresses the pathogenic program”. For the same compound, in assay [5] (both Th17p and Th17n), the IL23R transcripts result is “significant decrease”, the TBX21 transcripts result is listed as “significant decrease” and the “decrease in IL-23R transcripts” value is listed as “over 3 fold”. In addition, in assay [5] (bulk RNA-Seq of d1 Th17n and Th17p cells), the “position on PC1 (pathogenicity phenotype)” value is “shifted them to a less pathogenic state”.
The term IC50 denotes the concentration that inhibits the measured activity by half. For the compound `O=C(O)CCNc1cc(N2CCc3ccccc3CC2)nc(-c2ccccn2)n1` [GSK-J1], the IC50 in [6] is 6800 nM; in assay [7], 550 nM; in assay [8] it was 53 nM; in assay [9], 170 nM; in assay [11] it was greater than 20000 nM. Further, the “inhibitory activity against 100 protein kinases” value in assay [10] was “no significant inhibitory activity”.
As for `CCOC(=O)[C@@]1(CCCCCCOc2ccc(Cl)cc2)CO1` [etomoxir], the oxygen consumption rate result in assay [12] was “decreased”.
On to `NCCCCN` [putrescine], for which the “rescue by putrescine of the observed effects of ODC1−/−” value in [1] (ODC1−/− Th17 cells) is on record as “rescued”. Also, the “reversal by putrescine of the upregulation of Foxp3 by SAT1 inhibitor” value in assay [1] (Th17n cells, 2.5 mM putrescine) is recorded as “partially reversed”. In addition, the “rescue of the effect of DFMO by addition of putrescine” value is listed as “rescues the effect of DFMO; also recorded: completely reversed their phenotype” in assay [1] (cells treated with DFMO, 2.5 mM putrescine); “rescues the effect of DFMO” in assay [1] (non-pathogenic Th17 cells); “rescues the effect of DFMO” in [1] (pathogenic and non-pathogenic Th17 cells). The “rescue by putrescine of the effect of diminazene aceturate” value in [1] (non-pathogenic Th17 cells) is reported as “rescues the effect of diminazene aceturate”. In assay [1] (nonpathogenic Th17 cells), the “rescue by putrescine of the DFMO-induced increase in FoxP3 CD4 T cells” value is listed as “rescues the increase in FoxP3 CD4 T cells”.
